Series [1] in a line: LNP characterisation by Zeta Sizer (particle size, polydispersity, charge). Particulars: LNP with saRNA; lipid:DOPE:Cholesterol:DMG-PEG 35:20:43.5:1.5; N/P approximately 40/1. Format: physicochemical. Here is the method:
Cationic lipids, DOPE, Cholesterol and DMG-PEG lipid were solubilized in ethanol or DMSO at a molar ratio of 35:20:43.5:1.5 and a concentration of 100:25:20:25 μg/μL for C12-200 or 170:25:20:25 μg/μL for the comparator lipids. Lipid nanoparticles (LNP) were prepared by targeting an N/P ratio of approximately 40/1 with saRNA. Briefly, the saRNA was diluted to 0.5 mg/mL in 5 mM citrate buffer, pH 4.5. Microfluidic mixer (Ignite from Precision Nanosystems, California, USA) was used to mix the lipid solution with the saRNA aqueous solution at a ratio of about 1:3 (vol/vol) with total flow rates above 10 ml/min. The ethanol was then removed, and the external buffer replaced with 10 mM TRIS-HCL, pH 7.4, by dialysis. Finally, the lipid nanoparticles were filtered through a 0.2 μm pore sterile filter. Lipid nanoparticle particle size was 50-150 nm diameter and polydispersity index (PI) of 0.1-0.4 as determined by Zeta Sizer (Malvern Panalytical, UK). The charge of the formulation was also measured by Zeta Sizer and ranged between 20 to −20 mV.

Series [2] in a line: saRNA encapsulation, Quant-IT RiboGreen assay. Particulars: LNP with saRNA; RiboGreen with or without 2% Triton X-100. Format: physicochemical. The protocol:
The saRNA loading in LNP formulations was quantified using a Quant-IT RiboGreen assay (Thermo Fisher Scientific, Waltham, Massachusetts, USA) as previously described. 14 samples were diluted tenfold in 1× Tris HCL—EDTA (TE) buffer (10 mM Tris-HCL, 1 mM EDTA, pH 7.5) with or without 2% (v/v) Triton X-100 (Sigma-Aldrich, Saint Louis, Missouri, USA). Standard solutions were also prepared in 1×TE with or without 2% (v/v) Triton X-100 to account for any variation in fluorescence. The assay was performed according to the manufacturer's protocol. Samples were loaded on a black 96-well plate and analysed for fluorescence on a microplate reader (Tecan Infinite@200 PRO) at an excitation of 485 nm and emission at 528 nm. Encapsulation efficiency was calculated between 80-100%.

A further series concerns luciferase saRNA. The series can be described thus: In vivo bioluminescent imaging after intramuscular injection of LNP-formulated luciferase saRNA. Particulars: female SWISS mice, 1 μg luciferase saRNA intramuscularly. The protocol: (§1) Female SWISS mice (6 weeks old) were purchased from Janvier Laboratories (Paris, France) and kept in individually ventilated cages with access to food and water ad libitum. Mice were anesthetized with isoflurane (Zoetis, Louvain-La-Neuve, Belgium) (5% for induction and 2% for maintenance) and intramuscularly injected with a total of 1 μg in 100 μL Tris-HCL (50 μL per leg) LNP-formulated luciferase saRNA (for each group n=7). The expression of the luciferase induced bioluminescence was measured via non-invasive In vivo bioluminescent imaging (In vivo Imaging System (IVIS) Lumina III, Perkin Elmer, Waltham, Massachusetts, USA), 10 minutes after subcutaneous injection of 200 μL of D-luciferin (GoldBio, Saint Louis, Missouri, USA, #LUCK-1G) were measured in day 0 (before injection), day 1, day 3, day 5, day 7, day 10, day 15 and day 20. Table 4 and 5 report on the in vivo study using exemplary compounds 10-21, 10-44 and 10-45 and comparator lipids C12-200 and C1. […] Table 5 supports good tolerability of the compounds according to formula I.

Series [3] can be described thus: Body weight of mice in the in vivo study (tolerability). Particulars: female SWISS mice, 1 μg LNP-formulated saRNA intramuscularly. The protocol:
as §1

Structures are written as SMILES.

`CCCCCCC(CCCC)C(=O)OCCCCN(CCCCOC(=O)C(CCCC)CCCCCC)CCN1CCN(CCNCCN)CC1` (stereo not shown) [Compound 10-45, ((2-(4-(2-((2-aminoethyl)amino)ethyl)piperazin-1-yl)ethyl)azanediyl)bis(butane-4,1-diyl) bis(2-butyloctanoate)]: the “Polydispersity Index (PI)” value in series [1] came to 0.1. The “Z-average (nm)” value in series [1] came out at 81.42 nm. For the same molecule, the “Zetapotential (mV)” value in series [1] was 2.78 mV. Also, the “Encapsulation (%)” value in series [2] worked out at 100.49%. Further, the “Bioluminescence expression of LNPs” value in the series on luciferase saRNA (Day 0 (before injection)) amounted to 6.00E+04; in the series with luciferase saRNA (Day 1) it was 1.09E+07; with luciferase saRNA (Day 3), 1.90E+07; with luciferase saRNA (Day 5), 1.72E+07; with luciferase saRNA (Day 7) it was 1.68E+07; in the series on luciferase saRNA (Day 10), 7.02E+05. For the same molecule, the “Bioluminescence expression of LNPs” value with luciferase saRNA (Day 15) worked out at 7.94E+04; in the series on luciferase saRNA (Day 20), 8.63E+04. The “Weight” value in series [3] (Day 0 (before injection)) was 26.93 g; in series [3] (Day 1), 25.79 g; in series [3] (Day 3) it was 26.43 g; in series [3] (Day 5) it was 27.10 g; in series [3] (Day 7), 27.27 g; in series [3] (Day 10), 27.69 g. The “Weight” value in series [3] (Day 15) was determined as 28.19 g; in series [3] (Day 20), 30.21 g.
Turning to `CCCCCCC(CCCC)C(=O)OCCCCN(CCCCOC(=O)C(CCCC)CCCCCC)CCN1CCN(CCO)CC1` (stereo not shown) [Compound 10-21, ((2-(4-(2-hydroxyethyl)piperazin-1-yl)ethyl)azanediyl)bis(butane-4,1-diyl) bis(2-butyloctanoate)], in series [1], the “Polydispersity Index (PI)” value was determined as 0.16. The “Z-average (nm)” value in series [1] was 72.27 nm. In addition, the “Zetapotential (mV)” value in series [1] is 7.05 mV. In addition, the “Encapsulation (%)” value in series [2] was found to be 99.41%. For the same molecule, the “Bioluminescence expression of LNPs” value is given as 3.89E+04 with luciferase saRNA (Day 0 (before injection)); 3.23E+06 in the series on luciferase saRNA (Day 1); 5.03E+07 in the series with luciferase saRNA (Day 3); 8.74E+07 with luciferase saRNA (Day 5); 5.77E+07 in the series with luciferase saRNA (Day 7); 7.72E+06 in the series with luciferase saRNA (Day 10). Also, the “Bioluminescence expression of LNPs” value in the series on luciferase saRNA (Day 15) is 2.44E+05; in the series with luciferase saRNA (Day 20), 1.62E+05. In addition, the “Weight” value in series [3] (Day 0 (before injection)) was 27.96 g; in series [3] (Day 1), 28.19 g; in series [3] (Day 3) it was 28.26 g; in series [3] (Day 5), 27.90 g; in series [3] (Day 7), 28.01 g; in series [3] (Day 10) it was 27.57 g. The “Weight” value in series [3] (Day 15) stood at 28.63 g; in series [3] (Day 20), 30.83 g.
Take `CCCCCCCCCCCCCCOC(=O)CCN(CCC(=O)OCCCCCCCCCCCCCC)CCN1CCN(CCN(CCC(=O)OCCCCCCCCCCCCCC)CCC(=O)OCCCCCCCCCCCCCC)CC1` [Comparator 1 (C1), reference compound]: the “Polydispersity Index (PI)” value in series [1] was 0.16. In addition, in series [1], the “Z-average (nm)” value is listed as 70.96 nm. For the same molecule, in series [1], the “Zetapotential (mV)” value worked out at 9.07 mV. In series [2], the “Encapsulation (%)” value came out at 99.03%. Moreover, the “Bioluminescence expression of LNPs” value is reported as 3.32E+04 in the series on luciferase saRNA (Day 0 (before injection)); 2.76E+07 in the series with luciferase saRNA (Day 1); 1.28E+08 with luciferase saRNA (Day 3); 7.19E+07 in the series on luciferase saRNA (Day 5); 8.88E+07 in the series with luciferase saRNA (Day 7); 5.07E+06 with luciferase saRNA (Day 10). For the same molecule, the “Bioluminescence expression of LNPs” value in the series on luciferase saRNA (Day 15) is recorded as 8.46E+04; in the series on luciferase saRNA (Day 20), 4.32E+04. Also, the “Weight” value worked out at 26.56 g in series [3] (Day 0 (before injection)); 25.99 g in series [3] (Day 1); 27.21 g in series [3] (Day 3); 27.59 g in series [3] (Day 5); 27.09 g in series [3] (Day 7); 27.17 g in series [3] (Day 10). Further, the “Weight” value in series [3] (Day 15) is given as 29.43 g; in series [3] (Day 20), 30.11 g.
As to `CCCCCCCCCCC(O)CN(CCN1CCN(CCN(CC(O)CCCCCCCCCC)CC(O)CCCCCCCCCC)CC1)CCN(CC(O)CCCCCCCCCC)CC(O)CCCCCCCCCC` (stereo not shown) [Compound C12-200, 1,1′-((2-(4-(2-((2-(bis(2-hydroxydodecyl)amino)ethyl) (2-hydroxydodecyl)amino)ethyl)piperazin-1-yl)ethyl)azanediyl) bis(dodecan-2-ol), reference compound], the “Polydispersity Index (PI)” value in series [1] is given as 0.27. Besides, the “Z-average (nm)” value in series [1] is 98.11 nm. The “Zetapotential (mV)” value in series [1] is −5.50 mV. In series [2], the “Encapsulation (%)” value stood at 95.32%. Moreover, the “Bioluminescence expression of LNPs” value worked out at 2.39E+04 in the series with luciferase saRNA (Day 0 (before injection)); 3.36E+08 with luciferase saRNA (Day 1); 6.19E+08 in the series with luciferase saRNA (Day 3); 4.79E+08 in the series with luciferase saRNA (Day 5); 2.47E+08 in the series with luciferase saRNA (Day 7); 2.20E+07 in the series on luciferase saRNA (Day 10). Further, the “Bioluminescence expression of LNPs” value worked out at 4.80E+05 with luciferase saRNA (Day 15) and 9.12E+04 with luciferase saRNA (Day 20). The “Weight” value in series [3] (Day 0 (before injection)) was determined as 28.61 g; in series [3] (Day 1), 27.17 g; in series [3] (Day 3) it was 28.62 g; in series [3] (Day 5), 28.98 g; in series [3] (Day 7), 28.97 g; in series [3] (Day 10), 29.23 g. For the same molecule, the “Weight” value worked out at 30.16 g in series [3] (Day 15) and 31.23 g in series [3] (Day 20).
Turning to `CCCCCCC(CCCC)C(=O)OCCCCN(CCCCOC(=O)C(CCCC)CCCCCC)CCN1CCN(CCN)CC1` (stereo not shown) [Compound 10-44, ((2-(4-(2-aminoethyl)piperazin-1-yl)ethyl)azanediyl)bis(butane-4,1-diyl) bis(2-butyloctanoate)], the “Polydispersity Index (PI)” value in series [1] was 0.15. In addition, in series [1], the “Z-average (nm)” value was 67.46 nm. The “Zetapotential (mV)” value in series [1] turned out to be 1.25 mV. In addition, the “Encapsulation (%)” value in series [2] is 100.06%. The “Bioluminescence expression of LNPs” value turned out to be 2.87E+04 in the series with luciferase saRNA (Day 0 (before injection)); 1.61E+07 in the series with luciferase saRNA (Day 1); 3.62E+07 with luciferase saRNA (Day 3); 4.98E+07 in the series on luciferase saRNA (Day 5); 4.24E+07 with luciferase saRNA (Day 7); 1.09E+06 in the series on luciferase saRNA (Day 10). The “Bioluminescence expression of LNPs” value came to 5.87E+04 in the series on luciferase saRNA (Day 15) and 6.12E+04 in the series on luciferase saRNA (Day 20). Moreover, the “Weight” value in series [3] (Day 0 (before injection)) was 26.84 g; in series [3] (Day 1) it was 26.46 g; in series [3] (Day 3), 27.00 g; in series [3] (Day 5) it was 28.13 g; in series [3] (Day 7), 27.94 g; in series [3] (Day 10), 28.11 g. Besides, the “Weight” value amounted to 29.31 g in series [3] (Day 15) and 30.04 g in series [3] (Day 20).

For the origin of these results see US20250025429A1, “LIPID NANOPARTICLES FOR OLIGONUCLEOTIDE DELIVERY” (ZIPHIUS NV, priority 2021, published 2025).
